Laboratory results from patent US20100216779A1 (GLAXOSMITHKLINE LLC, priority 2007, published 2010).

What was measured:
Assay type in all cases: cell-based
COLO205 (colon) = assay: Inhibition of cell proliferation, CellTiter-Glo, COLO205; conditions: Homo sapiens, COLO 205, 72 h
How it was run: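 Exponentially growing COLO205 cells in medium with 10% FBS were plated below 2000 cells/well at 37 °C, 5% CO2. Untreated wells served as controls.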

[1] = system: NCI-H929 (multiple myeloma); assay: Inhibition of cell proliferation, CellTiter-Glo, NCI-H929; conditions: Homo sapiens, 72 h
How it was run: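 Cells were grown in medium with 10% FBS at 37° C, 5% CO2. Cell number was read as CellTiter-Glo luminescence (cellular ATP), with untreated wells as control.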

[2] = molecular target: T1, human IGF-1R (NIH-3T3 cells over expressing human IGF-1R) (Homo sapiens, UniProt P08069); assay: IGF-1R cellular autophosphorylation (DELFIA); conditions: IGF-1 stimulated
T1 construct: expressed in transfected cells; host or cells: NIH-3T3 (mouse fibroblasts)
How it was run: (§1)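 Read-out: DELFIA on lysates, receptor-specific capture antibody plus europium-labelled anti-phosphotyrosine, reported as % of IGF-1- or insulin-stimulated signal. Transfected NIH-3T3 cells got compound (30 uM–1.5 nM, 2 h) before a 15 min ligand pulse: IGF-1 30 ng/mL for IGF-1R, insulin 3 ug/mL for IR.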

[3] = molecular target: T2, IR (NIH-3T3 cells over expressing human IGF-1R or IR) (Homo sapiens, UniProt P06213); assay: IR cellular autophosphorylation (DELFIA); conditions: NIH-3T3 cells over expressing IR, insulin stimulated
T2 construct: expressed in transfected cells; host or cells: NIH-3T3 (mouse fibroblasts)
How it was run: as §1

T1 sequence (P08069 31-1367): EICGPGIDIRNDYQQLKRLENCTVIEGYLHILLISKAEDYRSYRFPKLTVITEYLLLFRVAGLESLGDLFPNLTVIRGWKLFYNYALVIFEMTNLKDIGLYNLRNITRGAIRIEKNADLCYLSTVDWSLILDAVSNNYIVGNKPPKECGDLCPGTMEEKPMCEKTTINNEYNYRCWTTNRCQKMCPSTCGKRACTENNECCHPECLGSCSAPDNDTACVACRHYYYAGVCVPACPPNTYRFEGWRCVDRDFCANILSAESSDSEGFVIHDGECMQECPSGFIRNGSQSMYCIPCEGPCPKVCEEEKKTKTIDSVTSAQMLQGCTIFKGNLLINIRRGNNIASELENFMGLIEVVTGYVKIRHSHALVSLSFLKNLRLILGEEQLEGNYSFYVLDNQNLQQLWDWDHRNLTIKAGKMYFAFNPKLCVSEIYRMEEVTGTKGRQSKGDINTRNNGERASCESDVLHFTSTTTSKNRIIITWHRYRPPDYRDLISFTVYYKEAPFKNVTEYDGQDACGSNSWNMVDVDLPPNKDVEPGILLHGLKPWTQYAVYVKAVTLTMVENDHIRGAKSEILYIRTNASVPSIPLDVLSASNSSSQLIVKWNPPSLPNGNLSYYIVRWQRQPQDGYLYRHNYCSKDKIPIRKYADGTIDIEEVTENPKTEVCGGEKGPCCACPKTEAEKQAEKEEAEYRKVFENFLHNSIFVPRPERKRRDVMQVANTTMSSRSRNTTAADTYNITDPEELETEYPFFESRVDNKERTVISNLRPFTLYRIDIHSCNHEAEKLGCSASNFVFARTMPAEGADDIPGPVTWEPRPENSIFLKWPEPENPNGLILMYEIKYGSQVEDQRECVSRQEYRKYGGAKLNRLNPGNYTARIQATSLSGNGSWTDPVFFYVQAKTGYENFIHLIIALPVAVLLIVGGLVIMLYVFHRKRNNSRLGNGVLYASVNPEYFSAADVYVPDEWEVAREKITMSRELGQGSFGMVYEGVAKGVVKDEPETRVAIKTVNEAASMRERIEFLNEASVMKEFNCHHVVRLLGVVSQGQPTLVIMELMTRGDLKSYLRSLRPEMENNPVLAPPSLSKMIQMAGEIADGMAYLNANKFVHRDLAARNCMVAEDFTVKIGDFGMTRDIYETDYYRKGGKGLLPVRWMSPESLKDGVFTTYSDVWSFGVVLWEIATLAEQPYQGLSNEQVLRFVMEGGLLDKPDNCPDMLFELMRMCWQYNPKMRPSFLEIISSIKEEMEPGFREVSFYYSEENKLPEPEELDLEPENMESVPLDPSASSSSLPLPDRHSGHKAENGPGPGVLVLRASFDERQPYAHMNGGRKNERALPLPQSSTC
T2 sequence (P06213 28-1382): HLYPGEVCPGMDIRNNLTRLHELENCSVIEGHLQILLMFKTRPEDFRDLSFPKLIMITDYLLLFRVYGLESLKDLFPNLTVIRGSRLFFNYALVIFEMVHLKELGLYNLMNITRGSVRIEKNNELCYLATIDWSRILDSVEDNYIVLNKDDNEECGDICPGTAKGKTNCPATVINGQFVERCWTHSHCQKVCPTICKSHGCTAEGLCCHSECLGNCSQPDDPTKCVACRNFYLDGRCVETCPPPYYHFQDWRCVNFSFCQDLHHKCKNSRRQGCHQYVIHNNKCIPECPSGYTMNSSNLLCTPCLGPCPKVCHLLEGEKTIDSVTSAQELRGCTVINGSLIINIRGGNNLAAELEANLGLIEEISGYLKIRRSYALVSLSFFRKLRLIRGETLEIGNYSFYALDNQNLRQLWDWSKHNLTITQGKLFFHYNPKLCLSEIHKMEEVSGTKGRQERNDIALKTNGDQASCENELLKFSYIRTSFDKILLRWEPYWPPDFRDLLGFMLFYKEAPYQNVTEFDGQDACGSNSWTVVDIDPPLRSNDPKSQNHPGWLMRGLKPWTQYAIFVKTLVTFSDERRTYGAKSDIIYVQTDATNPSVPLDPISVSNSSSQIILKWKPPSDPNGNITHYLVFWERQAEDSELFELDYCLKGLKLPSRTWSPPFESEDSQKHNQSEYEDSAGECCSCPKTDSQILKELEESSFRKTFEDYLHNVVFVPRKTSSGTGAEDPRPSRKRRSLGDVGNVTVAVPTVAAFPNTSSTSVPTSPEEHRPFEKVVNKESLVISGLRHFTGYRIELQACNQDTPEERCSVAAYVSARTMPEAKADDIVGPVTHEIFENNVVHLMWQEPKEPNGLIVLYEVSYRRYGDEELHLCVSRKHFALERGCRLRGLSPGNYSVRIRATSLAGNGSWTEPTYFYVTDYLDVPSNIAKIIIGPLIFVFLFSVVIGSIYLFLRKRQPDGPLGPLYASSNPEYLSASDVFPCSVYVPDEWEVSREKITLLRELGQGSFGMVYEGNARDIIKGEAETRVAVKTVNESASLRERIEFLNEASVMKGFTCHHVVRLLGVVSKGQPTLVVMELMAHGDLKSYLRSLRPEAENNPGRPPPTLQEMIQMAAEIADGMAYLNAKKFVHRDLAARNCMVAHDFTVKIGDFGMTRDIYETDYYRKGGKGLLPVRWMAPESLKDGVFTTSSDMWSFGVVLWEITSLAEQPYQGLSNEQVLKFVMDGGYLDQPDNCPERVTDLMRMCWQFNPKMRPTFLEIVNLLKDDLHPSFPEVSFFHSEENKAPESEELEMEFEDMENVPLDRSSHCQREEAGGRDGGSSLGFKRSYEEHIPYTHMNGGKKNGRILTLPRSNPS

Compound	IC50 (COLO205 (colon)) [nM]	IC50 [1] [nM]	IC50 [2] [nM]	IC50 [3] [nM]
CCOc1ccc(-c2nc3ccccn3c2-c2ccnc(Nc3ccc(N4CCN(S(C)(=O)=O)CC4)cc3OC)n2)cc1C(=O)Nc1c(F)cccc1F [Example 232, N-(2,6-difluorophenyl)-2-(ethyloxy)-5-{3-[2-({2-(methyloxy)-4-[4-(methylsulfonyl)-1-piperazinyl]phenyl]amino)-4-pyrimidinyl]imidazo[1,2-a]pyridin-2-yl}benzamide]	< 250	< 250	< 100	< 100
CCOc1cc(N2CCC(N3CCN(CCF)CC3)CC2)ccc1Nc1nccc(-c2c(-c3cccc(C(=O)Nc4c(F)cccc4F)c3)nc3ccccn23)n1 [Example 116, N-(2,6-difluorophenyl)-3-(3-{2-[(2-(ethyloxy)-4-{4-[4-(2-fluoroethyl)-1-piperazinyl]-1-piperidinyl}phenyl)amino]-4-pyrimidinyl}imidazo[1,2-a]pyridin-2-yl)benzamide]	250 to 1000	250 to 1000	< 100	< 100
COc1cc(C2CCN(C3CCN(CCF)CC3)CC2)ccc1Nc1nccc(-c2c(-c3cccc(C(=O)Nc4c(F)cccc4F)c3)nc3ccccn23)n1 [Example 100]	250 to 1000	250 to 1000	< 100	< 100
CCOc1ccc(-c2nc3ccccn3c2-c2ccnc(Nc3cc(C)c(C4CCN(CCS(C)(=O)=O)CC4)cc3OC)n2)cc1C(=O)Nc1c(F)cccc1F [Example 164, N-(2,6-difluorophenyl)-2-(ethyloxy)-5-(3-{2-[(5-methyl-2-(methyloxy)-4-{1-[2-(methylsulfonyl)ethyl]-4-piperidinyl}phenyl)amino]-4-pyrimidinyl}imidazo[1,2-a]pyridin-2-yl)benzamide]	< 250	< 250	< 100	< 100
COc1cc(N2CCC(N3CCC(F)CC3)CC2)ccc1Nc1nccc(-c2c(-c3cccc(C(=O)Nc4c(F)cccc4F)c3)nc3ccccn23)n1 [Example 51, N-(2,6-difluorophenyl)-3-[3-(2-{[4-(4-fluoro-1,4′-bipiperidin-1′-yl)-2-(methyloxy)phenyl]amino}-4-pyrimidinyl)imidazo[1,2-a]pyridin-2-yl]benzamide]	250 to 1000	250 to 1000	< 100	100 to 500
CCOc1ccc(-c2nc3ccccn3c2-c2ccnc(Nc3ccc(C4CCN(CC(C)C)CC4)cc3OC)n2)cc1C(=O)Nc1c(F)cccc1F [Example 161, N-(2,6-difluorophenyl)-2-(ethyloxy)-5-{3-[2-({2-(methyloxy)-4-[1-(2-methylpropyl)-4-piperidinyl]phenyl}amino)-4-pyrimidinyl]imidazo[1,2-a]pyridin-2-yl}benzamide]	250 to 1000	< 250	< 100	< 100
CCCN1CCN(c2ccc(Nc3nccc(-c4c(-c5cccc(C(=O)Nc6c(F)cccc6F)c5)nc5ccccn45)n3)c(OCC)c2)CC1 [Example 153, N-(2,6-difluorophenyl)-3-[3-(2-{[2-(ethyloxy)-4-(4-propyl-1-piperazinyl)phenyl]amino}-4-pyrimidinyl)imidazo[1,2-a]pyridin-2-yl]benzamide]	250 to 1000	250 to 1000	100 to 500	< 100
COc1cc(N2CCC(N3CCN(CCF)CC3)CC2)c(OC)cc1Nc1nccc(-c2c(-c3cccc(C(=O)Nc4c(F)cccc4F)c3)nc3ccccn23)n1 [Example 111, N-(2,6-difluorophenyl)-3-[3-(2-{[4-{4-[4-(2-fluoroethyl)-1-piperazinyl]-1-piperidinyl}-2,5-bis(methyloxy)phenyl]amino}-4-pyrimidinyl)imidazo[1,2-a]pyridin-2-yl]benzamide]	250 to 1000	< 250	< 100	< 100
COc1cc(N2CCC(N3CCN(CCF)CC3)CC2)ccc1Nc1nccc(-c2c(-c3ccc(OC)c(C(=O)Nc4c(F)cccc4F)c3)nc3ccccn23)n1 [Example 61, N-(2,6-difluorophenyl)-5-[3-(2-{[4-{4-[4-(2-fluoroethyl)-1-piperazinyl]-1-piperidinyl}-2-(methyloxy)phenyl]amino}-4-pyrimidinyl)imidazo[1,2-a]pyridin-2-yl]-2-(methyloxy)benzamide]	250 to 1000	< 250	< 100	< 100
COc1cc(N2CCN3CCOC[C@@H]3C2)ccc1Nc1nccc(-c2c(-c3cccc(C(=O)Nc4c(F)cccc4F)c3)nc3ccccn23)n1 [Example 123]	250 to 1000	250 to 1000	100 to 500	< 100
COc1cc(N2CCN(S(C)(=O)=O)CC2)ccc1Nc1nccc(-c2c(-c3ccc(OC)c(C(=O)Nc4c(F)cccc4F)c3)nc3ccccn23)n1 [Example 233, N-(2,6-difluorophenyl)-2-(methyloxy)-5-{3-[2-({2-(methyloxy)-4-[4-(methylsulfonyl)-1-piperazinyl]phenyl}amino)-4-pyrimidinyl]imidazo[1,2-a]pyridin-2-yl}benzamide]	250 to 1000	< 250	< 100	< 100
CCCc1cc(C2CCN(CCS(C)(=O)=O)CC2)ccc1Nc1nccc(-c2c(-c3ccc(OC)c(C(=O)Nc4c(F)cccc4F)c3)nc3ccccn23)n1 [Example 167, N-(2,6-difluorophenyl)-2-(methyloxy)-5-(3-{2-[(4-{1-[2-(methylsulfonyl)ethyl]-4-piperidinyl}-2-propylphenyl)amino]-4-pyrimidinyl}imidazo[1,2-a]pyridin-2-yl)benzamide]	> 1000	> 1000	< 100	< 100
COc1cc(N2CCN(CCS(C)(=O)=O)[C@@H](C(C)C)C2)ccc1Nc1nccc(-c2c(-c3ccc(OC)c(C(=O)Nc4c(F)cccc4F)c3)nc3ccccn23)n1 [Example 250, N-(2,6-difluorophenyl)-5-[3-(2-{[4-{(3S)-3-(1-methylethyl)-4-[2-(methylsulfonyl)ethyl]-1-piperazinyl}-2-(methyloxy)phenyl]amino}-4-pyrimidinyl)imidazo[1,2-a]pyridin-2-yl]-2-(methyloxy)benzamide]	250 to 1000	< 250	< 100	< 100
CCCc1cc(N2CCC(N3CCCCC3)CC2)ccc1Nc1nccc(-c2c(-c3cccc(C(=O)Nc4c(F)cccc4F)c3)nc3ccccn23)n1 [Example 41, 3-[3-(2-{[4-(1,4′-bipiperidin-1′-yl)-2-propylphenyl]amino}-4-pyrimidinyl)imidazo[1,2-a]pyridin-2-yl]-N-(2,6-difluorophenyl)benzamid]	250 to 1000	250 to 1000	< 100	100 to 500
COc1cc(N2CCC(N3CCCCC3)CC2)ccc1Nc1nccc(-c2c(-c3cccc(C(=O)Nc4c(F)cccc4F)c3)nc3c(F)cccn23)n1 [Example 190, 3-[3-(2-{[4-(1,4′-bipiperidin-1-yl)-2-(methyloxy)phenyl]amino}-4-pyrimidinyl)-8-fluoroimidazo[1,2-a]pyridin-2-yl]-N-(2,6-difluorophenyl)benzamide]	250 to 1000	250 to 1000	< 100	100 to 500
CCOc1cc(N2CCN(CCS(C)(=O)=O)CC2)ccc1Nc1nccc(-c2c(-c3ccc(OC)c(C(=O)Nc4c(F)cccc4F)c3)nc3ccccn23)n1 [Example 143, N-(2,6-difluorophenyl)-5-(3-{2-[(2-(ethyloxy)-4-{4-[2-(methylsulfonyl)ethyl)-1-piperazinyl}phenyl)amino]-4-pyrimidinyl}imidazo[1,2-a]pyridin-2-yl)-2-(methyloxy)benzamide]	250 to 1000	< 250	< 100	< 100
COc1cc(N2CCC(N3CCN(CCS(C)(=O)=O)CC3)CC2)ccc1Nc1nccc(-c2c(-c3ccc(OC)c(C(=O)Nc4c(F)cccc4F)c3)nc3ccccn23)n1 [Example 65, N-(2,6-difluorophenyl)-2-(methyloxy)-5-[3-(2-{[2-(methyloxy)-4-(4-{4-[2-(methylsulfonyl)-ethyl]-1-piperazinyl}-1-piperidinyl)phenyl]amino}-4-pyrimidinyl)imidazo-[1,2-a]pyridin-2-yl]benzamide]	250 to 1000	< 250	< 100	< 100
COc1cc(N2CCC(N3CCN(S(C)(=O)=O)CC3)CC2)ccc1Nc1nccc(-c2c(-c3cccc(C(=O)Nc4c(F)cccc4F)c3)nc3c(C)cccn23)n1 [Example 68, N-(2,6-difluorophenyl)-3-(8-methyl-3-{2-[(2-(methyloxy)-4-{4-[4-(methylsulfonyl)-1-piperazinyl]-1-piperidinyl}phenyl)amino]-4-pyrimidinyl}imidazo[1,2-a]pyridin-2-yl)benzamide]	250 to 1000	250 to 1000	100 to 500	100 to 500
CCOc1ccc(-c2nc3ccccn3c2-c2ccnc(Nc3ccc(N4CCC(N5CCN(CCS(C)(=O)=O)CC5)CC4)cc3OC)n2)cc1C(=O)Nc1c(F)cccc1F [Example 66, N-(2,6-difluorophenyl)-2-(ethyloxy)-5-[3-(2-{[2-(methyloxy)-4-(4-{4-[2-(methylsulfonyl)-ethyl]-1-piperazinyl}-1-piperidinyl)phenyl]amino}-4-pyrimidinyl)imidazo[1,2-a]pyridin-2-yl]benzamide]	250 to 1000	< 250	< 100	< 100
